pIC50: −log10 of the molar value.
How the values were obtained:
Leishmania donovani [1] = assay: (§1) GSK_TCAKS: pIC50 Leishmania donovani Imaging: Amastigotes/Macrophages. Assay plates (384-well) were prepared by adding 250nL of compound to each well. For single shot assay, the final compound concentration was 5 uM. […] Automated image analysis was performed with a script developed on Acapella High Content Imaging and Analysis Software (PerkinElmer). Output: Average number of amastigotes per macrophage cell were reported for each well.; type: functional, organism-based, Homo sapiens; conditions: THP-1
[2] = test system: Trypanosoma brucei brucei; assay: GSK_TCAKS: pIC50 Trypanosoma brucei viability assay using fluorescence intensity. Assay plates (1536-well) were prepared by dispensing 25nL of compound solution per well using an Echo acoustic dispenser (Labcyte).; type: functional, organism-based; conditions: Lister 427, 2 h
NIH3T3 = assay: GSK_TCAKS: pIC50 NIH 3T3 cell line viability assay using luminiscence. Tissue culture surface treated assay plates (1536-well) were used. […] The 100% cells survival control was determined exposing the host-cells to a 0.5% DMSO concentration, whereas the 100% toxicity control was achieved by seeding the cells in presence of Amphotericin B at 50uM. Plates were incubated for four days at 37C, 5% CO2. The assay readout was developed by addition of 5uL of CellTiter-Glo Reagent following the manufacturer's instructions. Luminiscence was measured using a ViewLux.; type: functional, cell-based; conditions: Mus musculus, NIH3T3, 96 h
Trypanosoma cruzi [3] = assay: (§2) GSK_TCAKS: pIC50 Trypanosoma cruzi Imaging: Amastigotes/Cell. […] Cells were then washed once with PBS before infection. T. cruzi trypomastigotes, collected at days 5 to 8 after infection from LLC-MK2 parasite infected cultures, were allowed to swim out for 4h at 37C from a centrifuged pellet (2,500 rpm/10 min/room temperature). Trypomastigotes were then collected and counted in a CASY Cell Counter. Trypomastigotes, in supplemented DMEM, were added to H9c2 cultures in a multiplicity of infection of 1 and incubated for 18 h. Cells were washed once with PBS before incubation of the infected H9c2 monolayer with trypsin (Life-Technologies) to detach cells from the flask. Cells were counted in a CASY Cell Counter using a 150 um capillary and their density set at 5 * 10^4 cells per mL in supplemented assay DMEM. Infected H9c2 were dispensed into 384-well poly-lysine coated assay plates at 50uL per well using a Multidrop Combi dispenser. After seeding them, the plates were incubated at 37C, 5% CO2 for 72h. Cultures were then fixed and stained by addition of 50 uL of a solution containing 8% formaldehyde and 4 uM DRAQ5 DNA dye (BioStatus, UK) per well. […] Five images were collected per well for reliable statistical analysis. Automated image analysis was performed with a script developed on Acapella High Content Imaging and Analysis Software (PerkinElmer). Output: number of amastigotes per cell as infection level measurement.; type: functional, organism-based, Rattus norvegicus; conditions: H9c2, 4 h
Leishmania donovani [4] = assay: as §1, with “THP-1 Host Macrophages.” for “Amastigotes/Macrophages.”, “THP-1” for “Average number of amastigotes per macrophage”, “cell count” for “cell”; type: functional, organism-based, Homo sapiens
[5] = biological target: Sterol 14-alpha demethylase (Trypanosoma cruzi (strain CL Brener), UniProt Q7Z1V1); assay: GSK_TCAKS: pIC50 CYP51 from Trypanosoma cruzi.; type: functional
Trypanosoma cruzi [6] = assay: GSK_TCAKS: pIC50 Trypanosoma cruzi viability assay using beta-GAL activity. This assay was run at single shot at 5uM compound concentration per well. The biological reagents consisted of NIH-3T3 host cells and trypomastigotes parasitic cells; both cell types were set to a 3.3 * 10^5 cells/mL dilution in assay DMEM by means of a CASY cell counter device using a 60um capillary. 6 uL of the mixture were dispensed per well (about 1 * 10^3 host-cells and 1 * 10^3 parasites) with a Multidrop Combi dispenser. […] In all wells, the percentage of DMSO never exceeded 0.5%. Plates incubated for four days at 37C, 5% CO2. The substrate used for the assay fluorescence intensity (FLINT) readout was resorufin-beta-D-galactopiranoside (Sigma-Aldrich) at 5uM per well. It was diluted in PBS supplemented with the soft detergent Igepal (Fluka).; type: functional, organism-based, Mus musculus; conditions: Tulahuen, NIH3T3
Trypanosoma cruzi [7] = assay: as §2, with “H2C9” for “Trypanosoma cruzi”, “H9c2 Host Cardiomyocytes.” for “Amastigotes/Cell.”, “Number” for “number”, “H9c2 Host Cardiomyocytes nuclei to determine drug-related cytotoxicity.” for “amastigotes per cell as infection level measurement.”; type: functional, organism-based, Rattus norvegicus; conditions: H9c2, 4 h
Leishmania donovani [8] = assay: as §1, with “Infected Macrophages.” for “Amastigotes/Macrophages.”, “Percent” for “Average number”, “infected” for “amastigotes per”, “cells” for “cell”; type: functional, organism-based, Homo sapiens; conditions: THP-1
Trypanosoma cruzi [9] = assay: GSK_TCAKS: pIC50 Trypanosoma cruzi Imaging: Infected Cells. […] Cells were then washed once with PBS before infection. T. cruzi trypomastigotes, collected at days 5 to 8 after infection from LLC-MK2 parasite infected cultures, were allowed to swim out for 4h at 37C from a centrifuged pellet (2,500 rpm/10 min/room temperature). Trypomastigotes were then collected and counted in a CASY Cell Counter. Trypomastigotes, in supplemented DMEM, were added to H9c2 cultures in a multiplicity of infection of 1 and incubated for 18 h. Cells were washed once with PBS before incubation of the infected H9c2 monolayer with trypsin (Life-Technologies) to detach cells from the flask. Cells were counted in a CASY Cell Counter using a 150 um capillary and their density set at 5 * 10^4 cells per mL in supplemented assay DMEM. Infected H9c2 were dispensed into 384-well poly-lysine coated assay plates at 50uL per well using a Multidrop Combi dispenser. After seeding them, the plates were incubated at 37C, 5% CO2 for 72h. Cultures were then fixed and stained by addition of 50 uL of a solution containing 8% formaldehyde and 4 uM DRAQ5 DNA dye (BioStatus, UK) per well. […] Five images were collected per well for reliable statistical analysis. Automated image analysis was performed with a script developed on Acapella High Content Imaging and Analysis Software (PerkinElmer). Output: percentage of infected cells per well as a second infection marker.; type: functional, organism-based, Rattus norvegicus; conditions: H9c2, 4 h
[10] = GSK_TCAKS: pIC50 HepG2 human cell line viability assay using luminiscence. […] Seeding density was checked to ensure that new mono-layers were not more than 50% confluent at the time of harvesting. Cell suspension was added to 500 mL of the same medium at a final density of 1.2 * 10^5 cells/mL. This cell suspension was dispensed (25 uL, 3000 cells per well) into 384-well clear-bottom plates using a Multidrop Combi dispenser. Prior to addition of the cell suspension, the screening compounds (250 nL) were pre-dispensed into the plates with an Echo liquid handler. Plates were incubated for 48 h at 37C, 5% CO2. After incubation, plates equilibrated at room temperature for 30 min before proceeding to develop the luminescent signal. The signal developer, CellTiter-Glo Reagent, was allowed to equilibrate at room temperature for 30 min and added to the plates (25uL per well) using a Multidrop Combi dispenser. Plates were left for 10 min at room temperature for stabilization and then read using a ViewLux.; type: toxicity, cell-based
[11] = test system: Trypanosoma brucei brucei; assay: GSK_TCAKS: pIC50 Trypanosoma brucei viability assay using luminiscence. Assay plates (1536-well) were prepared. T. brucei cultures were harvested and counted in a CASY cell counter. A parasite suspension was prepared at a final concentration of 5 * 10^4 cells/mL in complete HMI9 medium and 6uL was dispensed to all wells containing compounds using a Multidrop Combi dispenser. 6uL of HMI9 media with 0.4% DMSO were dispensed to control columns. Plates were incubated for 24 h at 37C, 5% CO2 then tempered for 10 min at room temperature. ATP content was quantified by adding 4 uL of CellTiter-Glo Reagent (Promega) according to the manufacturer's instructions. Luminescence was measured using a ViewLux.; type: functional, organism-based; conditions: Lister 427, CASY
Leishmania donovani [12] = assay: GSK_TCAKS: pIC50 Leishmania donovani viability assay using fluorescence intensity. Assay plates (1536-well) were prepared by adding 30nL per well of compound. For single shot assay, the final compound concentration was 5uM. […] Briefly, eGFP LdBOB axenic amastigotes were harvested, fixed and counted in a CASY cell counter (Roche-Applied Science). A final concentration of 1.5 * 10^5 cells per well were prepared in amastigote media containing 500 U/mL penicillin/streptomycin (Invitrogen) and 6uL was dispensed to each experimental well using a Multidrop Combi dispenser (Thermo Scientific). 6uL of assay media was dispensed to control columns used as reference for 100% compound response. Following incubation for 72 h at 37C, 5% CO2, 2 uL of resazurin was added to each well at a final concentration of 0.5 mM in phosphate buffered saline (PBS) with IGEPAL (Sigma-Aldrich), 0.05% (v/v).; type: functional, organism-based

Sterol 14-alpha demethylase, sequence (Q7Z1V1 whole entry): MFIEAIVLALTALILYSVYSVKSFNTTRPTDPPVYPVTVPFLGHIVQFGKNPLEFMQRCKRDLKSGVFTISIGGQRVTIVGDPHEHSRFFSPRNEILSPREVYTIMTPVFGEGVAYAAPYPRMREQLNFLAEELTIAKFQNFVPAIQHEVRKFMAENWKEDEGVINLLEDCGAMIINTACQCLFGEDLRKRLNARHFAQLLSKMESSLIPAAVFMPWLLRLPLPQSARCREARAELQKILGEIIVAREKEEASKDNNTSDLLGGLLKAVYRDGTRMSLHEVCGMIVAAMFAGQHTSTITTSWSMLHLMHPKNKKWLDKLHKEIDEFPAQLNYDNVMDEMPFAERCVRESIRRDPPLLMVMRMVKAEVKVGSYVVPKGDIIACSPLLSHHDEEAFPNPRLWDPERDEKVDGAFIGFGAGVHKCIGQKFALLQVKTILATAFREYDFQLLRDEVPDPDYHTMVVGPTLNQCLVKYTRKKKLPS

Compound | pIC50 (Leishmania donovani [1]) | pIC50 [2] | pIC50 (NIH3T3) | pIC50 (Trypanosoma cruzi [3]) | pIC50 (Leishmania donovani [4]) | pIC50 [5] | pIC50 (Trypanosoma cruzi [6]) | pIC50 (Trypanosoma cruzi [7]) | pIC50 (Leishmania donovani [8]) | pIC50 (Trypanosoma cruzi [9]) | IC50 at 48 h [10] [µM] | pIC50 [11] | pIC50 (Leishmania donovani [12])
CC(C)(C)C(Cn1ccnc1)NC(=O)c1ccc2nc(C3CC3)oc2c1 (stereo not given) | < 4.30 | < 4.40 | < 4.30 | 7.10 | 4.80 | 7.00 | 7.00 | < 4.30 | < 4.30 | 7.00 | > 100 | < 4.40 | 4.70
O=C(NCC(c1cccnc1)N1CCc2ccccc2C1)C(=O)Nc1cccc(Cl)c1 (stereo not given) | < 4.30 | 4.80 | 4.60 | 7.20 | < 4.30 | 7.20 | 6.70 | 4.60 | < 4.30 | 7.10 | > 100 | 4.70 | 5.90
O=C(NC1C(=O)N(c2ccccc2)C1c1cccnc1)c1ccc(Cl)s1 (stereo not given) | 6.10 | < 4.40 | < 4.30 | 7.40 | < 4.30 | 6.70 | 7.50 | < 4.30 | < 4.30 | 7.30 | > 100 | < 4.40 | 6.00
CCn1nccc1CN(C)C(=O)C=Cc1ccc(Cl)cc1 | < 4.30 | 4.50 | < 4.30 | 6.50 | < 4.30 | 6.50 | 6.65 | < 4.30 | < 4.30 | 6.50 | > 100 | < 4.40 | 4.80
Cc1n[nH]c2c1C(c1ccc(OCc3ccccc3F)cc1)SCC(=O)N2 (stereo not given) | < 4.30 | 4.60 | < 4.30 | 6.10 | < 4.30 | < 4.00 | 5.70 | < 4.30 | < 4.30 | 5.50 | > 100 | < 4.40 | 4.40
CCCN(Cc1ccc(OC)c(OC)c1)Cc1cc(=O)c2c(C)cc(C)cc2[nH]1 | 4.70 | 4.60 | 4.50 | 6.30 | 5.30 | < 4.00 | 5.70 | < 4.30 | 4.60 | 5.70 | 63.1 | < 4.40 | 4.70
CCC1Oc2cc(S(=O)(=O)N(C)CC(=O)N3CCc4ccccc4C3)c(C)cc2NC1=O (stereo not given) | 4.50 | 4.60 | < 4.30 | 6.60 | < 4.30 | 6.10 | 6.70 | < 4.30 | < 4.30 | 6.60 | > 100 | 4.50 | < 4.30
Cc1nc(N2CCC(C(=O)N3CCC(O)(c4cccnc4)CC3)CC2)nc2ccc(C(C)C)cc12 | 5.00 | 4.70 | 4.60 | 6.40 | 4.60 | 6.90 | 5.80 | 4.40 | 4.30 | 6.50 | 79.4 | 4.50 | < 4.30
CN(Cc1ccc(F)cc1)c1ccc(OCC(=O)N2CCCCC2c2cccnc2)nn1 (stereo not given) | < 4.30 | < 4.40 | 5.00 | 6.40 | 4.50 | 7.30 | 6.50 | < 4.30 | < 4.30 | 6.40 | > 100 | < 4.40 | 4.80
Cc1ccc(NC(=O)C(C)n2nc([N+](=O)[O-])c(Br)c2C)cc1Cl (stereo not given) | < 4.30 | 4.80 | 4.90 | 5.50 | < 4.30 | < 4.00 | 5.60 | < 4.30 | < 4.30 | 5.20 | 79.4 | < 4.40 | < 4.30
c1ccc(CCNCc2cncc3nc(-c4cnccn4)n(C4CCCCC4)c23)cc1 | < 4.30 | 4.50 | 5.20 | 6.90 | < 4.30 | 7.00 | 6.50 | < 4.30 | < 4.30 | 6.90 | > 100 | < 4.40 | < 4.30
CN(Cc1nc2ccccc2s1)C(=O)C=Cc1cc2ccccc2o1 | 4.80 | 4.50 | 4.50 | 6.00 | < 4.30 | 6.80 | 6.20 | < 4.30 | < 4.30 | 6.10 | > 100 | < 4.40 | 4.30
CC(=O)Nc1ccc(-c2noc(CC3CCCN(Cc4cccc(F)c4C)C3)n2)cc1 (stereo not given) | 4.90 | 4.70 | 4.60 | 5.90 | < 4.30 | < 4.00 | 6.00 | 4.50 | 4.50 | 5.70 | > 100 | 4.60 | 4.40
N#Cc1ccc(S(=O)(=O)N2CCC3(CCN(c4ccccc4)C3=O)CC2)cc1 | < 4.30 | < 4.40 | < 4.30 | 6.20 | < 4.30 | < 4.00 | 5.90 | < 4.30 | < 4.30 | 6.00 | > 100 | < 4.40 | < 4.30
Cc1cccc(NS(=O)(=O)c2cnc3sc(C)cn3c2=O)c1 | 5.30 | < 4.40 | < 4.30 | 6.00 | < 4.30 | < 4.00 | 5.90 | 5.20 | < 4.30 | 5.70 | > 100 | < 4.40 | < 4.30

From ChEMBL document CHEMBL3430912, “GSK Tres Cantos Anti-Kinetoplastid Screening (TCAKS) Data”
